Read-outs that look alike come from different tables or passages of the source.
Legend:
[1] = PK parameters after bid (twice a day) administration; format: in vivo; conditions: for Cmax1 / Tmax1: after first daily dosing; for Cmax2 / Tmax2: after second daily dosing; for AUC / AUC(0-t): in vivo; for AUC: read-out: AUC(12-24 h)
From the text: FIG. 10 and Table 4 show the PK properties of the compound of Chemical Formula 2 administered twice a day (bid).
FIG. 11 and Table 5 show the PK properties of the compound of Chemical Formula 1 administered twice per day.

[2] = long-term stability study, water uptake by TGA; format: physicochemical
Description: The physical and chemical stability study was performed on the compounds of Chemical Formula 2 and Chemical Formula 1 (for reference purposes). The long-term stability study was conducted at defined temperatures and relative humidity levels (25° C./60% relative humidity (RH) and 40° C./75% RH). At regular intervals, a solid sample was analyzed by XRPD, TGMS and HPLC.

Structure (SMILES): CN1CCN(Cc2ccc(-c3cnc(N4CCOC(Cn5nnc6ncc(-c7cnn(C)c7)nc65)C4)nc3)cc2)CC1.O=C(O)/C=C\C(=O)O (stereo not shown) [Chemical Formula 2]
- AUC(0-12 h)/Dose ([1]; 5 mg/kg IV (10 mg/kg/day)): 1060 kg·nM·h/mg
- AUC(12-24 h)/Dose ([1]; 5 mg/kg IV (10 mg/kg/day)): 1470 kg·nM·h/mg
- AUClast/Dose ([1]; 5 mg/kg IV (10 mg/kg/day)): 1298 kg·nM·h/mg
- Cl ([1]; 5 mg/kg IV (10 mg/kg/day)): 0.00086 mg/h/nM/kg
- Vss ([1]; 5 mg/kg IV (10 mg/kg/day)): 0.00782 mg/nM/kg
- Vz ([1]; 5 mg/kg IV (10 mg/kg/day)): 0.00283 mg/nM/kg
- AUC(0-12 h)/Dose ([1]; 5 mg/kg PO (10 mg/kg/day)): 685 kg·nM·h/mg
- AUC(12-24 h)/Dose ([1]; 5 mg/kg PO (10 mg/kg/day)): 798 kg·nM·h/mg
- AUClast/Dose ([1]; 5 mg/kg PO (10 mg/kg/day)): 742 kg·nM·h/mg
- F ([1]; 5 mg/kg PO (10 mg/kg/day)): 57.2%
- Cmax1 ([1]; 5 mg/kg PO (10 mg/kg/day)): 611 nM
- Tmax1 ([1]; 5 mg/kg PO (10 mg/kg/day)): 0.5-3$ h
- Cmax2 ([1]; 5 mg/kg PO (10 mg/kg/day)): 802 nM
- Tmax2 ([1]; 5 mg/kg PO (10 mg/kg/day)): 12.5-13$ h
- AUC(0-12 h)/Dose ([1]; 20 mg/kg PO (40 mg/kg/day)): 612 kg·nM·h/mg
- AUC(12-24 h)/Dose ([1]; 20 mg/kg PO (40 mg/kg/day)): 601 kg·nM·h/mg
- AUClast/Dose ([1]; 20 mg/kg PO (40 mg/kg/day)): 607 kg·nM·h/mg
- F ([1]; 20 mg/kg PO (40 mg/kg/day)): 46.8%
- Cmax1 ([1]; 20 mg/kg PO (40 mg/kg/day)): 1600 nM
- Tmax1 ([1]; 20 mg/kg PO (40 mg/kg/day)): 2-3$ h
- Cmax2 ([1]; 20 mg/kg PO (40 mg/kg/day)): 2120 nM
- Tmax2 ([1]; 20 mg/kg PO (40 mg/kg/day)): 12.5-14$ h
- AUC ([1]; 5 mg/kg IV (10 mg/kg/day)): 7.34 µM·h
- AUC ([1]; 5 mg/kg PO (10 mg/kg/day)): 3.99 µM·h
- AUC ([1]; 20 mg/kg PO (40 mg/kg/day)): 12 µM·h
- AUC(0-t) ([1]; iv, 5 mg/kg, 5 mg/kg IV (10 mg/kg/day), read-out: AUC(0-12 h)): 5.32 µM·h
- AUC(0-t) ([1]; iv, 5 mg/kg, 5 mg/kg IV (10 mg/kg/day), read-out: AUClast): 13 µM·h
- AUC(0-t) ([1]; po, 5 mg/kg, 5 mg/kg PO (10 mg/kg/day), read-out: AUC(0-12 h)): 3.43 µM·h
- AUC(0-t) ([1]; po, 5 mg/kg, 5 mg/kg PO (10 mg/kg/day), read-out: AUClast): 7.42 µM·h
- AUC(0-t) ([1]; po, 20 mg/kg, 20 mg/kg PO (40 mg/kg/day), read-out: AUC(0-12 h)): 12.2 µM·h
- AUC(0-t) ([1]; po, 20 mg/kg, 20 mg/kg PO (40 mg/kg/day), read-out: AUClast): 24.3 µM·h
- water content compared to the free base form ([2]; 15 months, 40 degrees centigrade, 75% relative humidity (FIG. 4), in words): nearly four times lower
- water content lower than the free base form ([2]; about 15 months at 40° C. and 75% relative humidity): at least 22%
- water uptake ([2]; incubation for 15 months under the tested conditions, in words): no significant water uptake
